Tests used:
CYP3A4 [1] = assay: CYP3A4 mRNA induction in human hepatocyte triculture (HTC) model
CYP2C19 [2] = assay: CYP2C19 enzyme activity induction in HTC model (omeprazole 5-hydroxylation)
CYP2B6 [3] = assay: CYP2B6 mRNA induction in HTC model
CYP2C9 [4] = assay: CYP2C9 enzyme activity induction in HTC model (diclofenac 4-hydroxylation)
CYP2C9 [5] = assay: in vitro; conditions: human
CYP2B6 [6] = assay: in vitro; conditions: human
CYP2C8 = CYP2C8 mRNA induction in HTC model
CYP2C9 [7] = assay: CYP2C9 mRNA induction in HTC model
CYP3A4 [8] = assay: in vitro; conditions: human
CYP2C19 [9] = assay: CYP2C19 mRNA induction in HTC model
CYP2C9 [10] = assay: in vitro; conditions: human, probe diclofenac (4-hydroxy diclofenac formation)
CYP3A4 [11] = assay: CYP3A4 enzyme activity induction in HTC model (midazolam 1-hydroxylation)
Other CYPs = conditions: victim drug; ref [35],[36]; cited from earlier work
[12] = victim drug after administration with rifampicin; References of Table 4 ([27]-[43]), DIDB; cited from earlier work

O=C1Nc2ccc(Cl)cc2[C@@](C#CC2CC2)(C(F)(F)F)O1 [Efavirenz, efavirenz]
Emax Fold (CYP3A4 [1]; Donor 1): […] | EC50 (CYP3A4 [1]; Donor 2): […] | Emax Fold (CYP3A4 [1]; Donor 2): […] | EC50 (CYP3A4 [1]; Donor 3): […] | Emax Fold (CYP3A4 [1]; Donor 3): […] | EC50 (CYP2C19 [2]; Donor 1): 946 nM | Emax Fold (CYP2C19 [2]; Donor 1): […] | EC50 (CYP2C19 [2]; Donor 2): 297 nM | Emax Fold (CYP2C19 [2]; Donor 2): […] | EC50 (CYP2C19 [2]; Donor 3): 2480 nM | Emax Fold (CYP2C19 [2]; Donor 3): […] | Emax Fold (CYP2B6 [3]; Donor 1): […] | EC50 (CYP2B6 [3]; Donor 2): […] | Emax Fold (CYP2B6 [3]; Donor 2): […] | EC50 (CYP2B6 [3]; Donor 3): […] | Emax Fold (CYP2B6 [3]; Donor 3): […] | Emax Fold (CYP2C9 [4]; Donor 1): […] | Emax Fold (CYP2C9 [4]; Donor 2): […] | Emax Fold (CYP2C9 [4]; Donor 3): […] | EC50 at 96 h (CYP2C9 [5]): 455 nM | EC50 at 96 h (CYP2B6 [6]): […] | EC50 (CYP2C8; Donor 1): 4480 nM | Emax Fold (CYP2C8; Donor 1): […] | EC50 (CYP2C8; Donor 2): 1970 nM | Emax Fold (CYP2C8; Donor 2): […] | EC50 (CYP2C8; Donor 3): 2950 nM | Emax Fold (CYP2C8; Donor 3): […] | Emax Fold (CYP2C9 [7]; Donor 1): […] | Emax Fold (CYP2C9 [7]; Donor 2): […] | Emax Fold (CYP2C9 [7]; Donor 3): […] | EC50 at 96 h (CYP3A4 [8]): […] | EC50 (CYP2C19 [9]; Donor 1): 8300 nM | Emax Fold (CYP2C19 [9]; Donor 1): […] | Emax Fold (CYP2C19 [9]; Donor 2): […] | EC50 (CYP2C19 [9]; Donor 3): 2910 nM | Emax Fold (CYP2C19 [9]; Donor 3): […] | EC50 at 96 h (CYP2C9 [10]): 4290 nM | EC50 (CYP3A4 [11]; Donor 1): […] | Emax Fold (CYP3A4 [11]; Donor 1): […] | EC50 (CYP3A4 [11]; Donor 2): […] | Emax Fold (CYP3A4 [11]; Donor 2): […] | EC50 (CYP3A4 [11]; Donor 3): […] | Emax Fold (CYP3A4 [11]; Donor 3): […]

CCCCNC(=O)NS(=O)(=O)c1ccc(C)cc1 [Tolbutamide, tolbutamide]
fm Other CYPs (Other CYPs): 0.15 | % AUC Reduction (Clinically Observed) [12]: 63.5%

— PMC12389355, “Physiologically Based Pharmacokinetic Modeling to Assess Perpetrator and Victim Cytochrome P450 2C Induction Risk” (Pharmaceutics, 2025)
